Source: article PMC10716637 (RSC Advances, 2023)

How the values were obtained:
EGFR^T790M = EGFR^T790M (Homo sapiens, UniProt P00533, T790M); test: In vitro EGFR^T790M kinase inhibitory assay; assay type: biochemical
A549 = test: MTT cytotoxicity assay, A549; assay type: cell-based, human; conditions: for EC50: Homo sapiens, A549, read-out: EC50 A549
HCT116 = test: MTT cytotoxicity assay, HCT116; assay type: cell-based, human; conditions: for EC50: Homo sapiens, HCT-116, read-out: EC50 HCT116
HepG2 = test: MTT cytotoxicity assay, HepG2; assay type: cell-based, human; conditions: for EC50: Homo sapiens, HepG2, read-out: EC50 HepG2
MCF-7 = test: MTT cytotoxicity assay, MCF-7; assay type: cell-based, human; conditions: for EC50: Homo sapiens, MCF7, read-out: EC50 MCF-7
VEGFR-2 = VEGFR-2 (Homo sapiens, UniProt P35968); test: In vitro VEGFR-2 kinase inhibitory assay; assay type: biochemical
Sequence of VEGFR-2 (P35968 20-1356): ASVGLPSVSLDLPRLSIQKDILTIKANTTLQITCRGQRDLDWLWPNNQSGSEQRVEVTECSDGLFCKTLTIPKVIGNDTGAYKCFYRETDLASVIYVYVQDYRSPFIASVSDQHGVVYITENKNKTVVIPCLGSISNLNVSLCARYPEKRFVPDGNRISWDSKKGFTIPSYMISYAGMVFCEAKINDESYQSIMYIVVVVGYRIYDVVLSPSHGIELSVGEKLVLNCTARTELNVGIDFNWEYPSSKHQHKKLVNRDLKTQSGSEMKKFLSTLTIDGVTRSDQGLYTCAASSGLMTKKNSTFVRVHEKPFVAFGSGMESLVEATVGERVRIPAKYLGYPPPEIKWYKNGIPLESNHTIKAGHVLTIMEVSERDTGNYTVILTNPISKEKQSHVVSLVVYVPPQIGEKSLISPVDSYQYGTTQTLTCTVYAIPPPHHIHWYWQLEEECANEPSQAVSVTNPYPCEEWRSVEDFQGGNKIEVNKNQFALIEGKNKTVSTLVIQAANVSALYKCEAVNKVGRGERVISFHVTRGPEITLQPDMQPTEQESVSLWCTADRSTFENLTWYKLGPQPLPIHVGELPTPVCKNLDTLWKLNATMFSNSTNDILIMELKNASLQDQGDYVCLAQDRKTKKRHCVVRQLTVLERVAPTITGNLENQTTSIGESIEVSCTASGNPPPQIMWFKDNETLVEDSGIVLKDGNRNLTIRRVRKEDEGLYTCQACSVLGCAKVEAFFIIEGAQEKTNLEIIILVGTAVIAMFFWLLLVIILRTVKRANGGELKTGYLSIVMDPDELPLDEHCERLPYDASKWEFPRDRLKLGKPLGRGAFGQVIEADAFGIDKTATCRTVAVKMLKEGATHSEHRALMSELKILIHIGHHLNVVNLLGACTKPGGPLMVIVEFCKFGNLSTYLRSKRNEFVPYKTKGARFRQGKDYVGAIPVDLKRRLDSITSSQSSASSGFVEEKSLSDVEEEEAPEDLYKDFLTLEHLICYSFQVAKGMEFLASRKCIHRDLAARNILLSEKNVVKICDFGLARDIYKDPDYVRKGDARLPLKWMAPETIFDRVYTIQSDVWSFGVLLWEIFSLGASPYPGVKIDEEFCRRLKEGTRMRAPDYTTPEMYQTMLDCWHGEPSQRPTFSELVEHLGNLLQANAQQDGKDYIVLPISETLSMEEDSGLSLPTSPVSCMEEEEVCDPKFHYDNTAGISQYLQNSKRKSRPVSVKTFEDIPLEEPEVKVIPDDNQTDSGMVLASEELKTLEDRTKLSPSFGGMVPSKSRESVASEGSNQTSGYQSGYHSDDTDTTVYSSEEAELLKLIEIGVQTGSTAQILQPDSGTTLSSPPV

[1] = Cytotoxicity against VERO normal cell lines; conditions: African green monkey, VERO normal cells
EGFR^WT = EGFR^WT (Homo sapiens, UniProt P00533); test: In vitro EGFR^WT kinase inhibitory assay; assay type: biochemical
Sequence of EGFR^WT (P00533 25-1210): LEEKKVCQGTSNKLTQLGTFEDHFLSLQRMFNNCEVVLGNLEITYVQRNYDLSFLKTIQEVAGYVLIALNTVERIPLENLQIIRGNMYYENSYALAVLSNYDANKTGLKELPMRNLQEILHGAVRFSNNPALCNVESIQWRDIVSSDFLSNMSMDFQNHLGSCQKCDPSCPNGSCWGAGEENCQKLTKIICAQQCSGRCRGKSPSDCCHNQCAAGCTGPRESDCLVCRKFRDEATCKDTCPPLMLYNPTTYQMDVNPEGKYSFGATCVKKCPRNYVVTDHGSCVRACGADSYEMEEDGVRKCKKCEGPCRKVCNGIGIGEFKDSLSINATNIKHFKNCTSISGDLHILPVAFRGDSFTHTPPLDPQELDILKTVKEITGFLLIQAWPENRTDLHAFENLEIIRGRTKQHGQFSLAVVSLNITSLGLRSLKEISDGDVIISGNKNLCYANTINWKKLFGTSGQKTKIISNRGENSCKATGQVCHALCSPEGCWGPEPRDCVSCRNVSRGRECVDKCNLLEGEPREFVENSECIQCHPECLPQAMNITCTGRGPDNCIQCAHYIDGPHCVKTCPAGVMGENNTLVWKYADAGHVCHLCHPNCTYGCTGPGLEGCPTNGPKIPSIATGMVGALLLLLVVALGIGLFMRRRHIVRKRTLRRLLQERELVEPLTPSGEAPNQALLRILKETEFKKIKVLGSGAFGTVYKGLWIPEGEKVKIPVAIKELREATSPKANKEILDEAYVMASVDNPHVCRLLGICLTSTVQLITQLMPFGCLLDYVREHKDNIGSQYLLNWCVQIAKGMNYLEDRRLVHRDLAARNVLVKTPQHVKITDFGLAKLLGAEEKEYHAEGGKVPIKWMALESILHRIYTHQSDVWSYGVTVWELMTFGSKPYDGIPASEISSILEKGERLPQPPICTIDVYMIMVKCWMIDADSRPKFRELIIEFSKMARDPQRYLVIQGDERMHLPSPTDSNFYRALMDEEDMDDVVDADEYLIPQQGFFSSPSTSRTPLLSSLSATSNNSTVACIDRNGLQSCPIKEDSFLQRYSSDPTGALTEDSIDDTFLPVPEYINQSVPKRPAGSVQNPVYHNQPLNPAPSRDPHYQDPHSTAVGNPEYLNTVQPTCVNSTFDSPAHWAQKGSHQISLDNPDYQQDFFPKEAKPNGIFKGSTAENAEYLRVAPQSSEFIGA

Sequence of EGFR^T790M (P00533 25-1210 T790M): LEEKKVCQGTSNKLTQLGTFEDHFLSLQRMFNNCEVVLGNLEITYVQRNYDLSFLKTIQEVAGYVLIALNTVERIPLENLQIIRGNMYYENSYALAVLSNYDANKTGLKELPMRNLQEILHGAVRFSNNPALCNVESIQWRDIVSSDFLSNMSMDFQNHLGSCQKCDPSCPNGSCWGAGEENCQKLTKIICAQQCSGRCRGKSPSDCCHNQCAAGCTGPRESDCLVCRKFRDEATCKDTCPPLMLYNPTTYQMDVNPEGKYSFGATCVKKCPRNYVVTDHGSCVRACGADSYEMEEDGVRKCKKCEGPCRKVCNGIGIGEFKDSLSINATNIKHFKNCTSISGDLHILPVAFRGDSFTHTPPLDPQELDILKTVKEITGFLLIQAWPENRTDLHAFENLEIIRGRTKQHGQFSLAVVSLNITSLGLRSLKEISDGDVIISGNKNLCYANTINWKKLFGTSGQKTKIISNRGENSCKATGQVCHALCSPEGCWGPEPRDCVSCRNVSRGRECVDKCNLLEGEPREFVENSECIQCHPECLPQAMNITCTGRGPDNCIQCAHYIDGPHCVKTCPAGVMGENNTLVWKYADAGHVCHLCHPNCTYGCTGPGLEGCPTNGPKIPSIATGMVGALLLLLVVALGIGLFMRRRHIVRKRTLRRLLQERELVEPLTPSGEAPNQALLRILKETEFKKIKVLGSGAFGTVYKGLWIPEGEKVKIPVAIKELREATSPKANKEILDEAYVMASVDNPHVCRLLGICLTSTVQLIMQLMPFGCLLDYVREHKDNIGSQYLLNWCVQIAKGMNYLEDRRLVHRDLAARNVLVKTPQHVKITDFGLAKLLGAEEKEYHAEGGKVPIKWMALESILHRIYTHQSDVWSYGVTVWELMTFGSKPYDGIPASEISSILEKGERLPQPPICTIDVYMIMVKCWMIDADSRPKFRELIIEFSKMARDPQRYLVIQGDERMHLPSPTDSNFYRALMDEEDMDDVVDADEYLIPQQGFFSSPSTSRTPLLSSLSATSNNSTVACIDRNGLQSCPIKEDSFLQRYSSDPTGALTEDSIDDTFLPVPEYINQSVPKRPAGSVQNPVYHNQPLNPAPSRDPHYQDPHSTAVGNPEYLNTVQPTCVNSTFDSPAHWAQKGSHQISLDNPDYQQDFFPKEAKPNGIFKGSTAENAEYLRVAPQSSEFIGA

IC50 (EGFR^T790M) [µM] | IC50 (VEGFR-2) [µM] | SMILES | EC50 (A549) [µM] | EC50 (HCT116) [µM] | EC50 (HepG2) [µM] | EC50 (MCF-7) [µM] | Selectivity index (SI): folds toxicity in A549 than in VERO cells (A549; CC50 VERO vs EC50 A549) [folds] | Selectivity index (SI): folds lethalness in HCT-116 than in VERO cells (HCT116; CC50 VERO vs EC50 HCT-116) [folds] | Selectivity index (SI): folds more toxic respecting HepG2 than normal VERO cells (HepG2; CC50 VERO vs EC50 HepG2) [folds] | Selectivity index (SI): folds toxic in MCF-7 than in normal VERO cells (MCF-7; CC50 VERO vs EC50 MCF-7) [folds] | CC50 [1] [µM] | IC50 (EGFR^WT) [µM]
1.5 ± 0.5 | 2.5 ± 0.25 | CCn1c(=O)n(CC(=O)Nc2ccc(C(=O)NN)cc2)c(=O)c2cc(I)ccc21 [Compound 7a, 2-(1-Ethyl-6-iodo-2,4-dioxo-1,4-dihydroquinazolin-3(2H)-yl)-N-(4-(hydrazinecarbonyl)phenyl)-acetamide] | 13.7 ± 1.5 | 13.2 ± 1.5 | 16 ± 1.5 | 15.5 ± 1.5 | – | – | – | – | – | –
2.05 ± 0.5 | 2.25 ± 0.25 | CCCn1c(=O)n(CC(=O)Nc2ccc(C(=O)NN)cc2)c(=O)c2cc(I)ccc21 [Compound 7b, N-[4-(hydrazinecarbonyl)phenyl]-2-(6-iodo-2,4-dioxo-1-propyl-1,4-dihydroquinazolin-3(2H)-yl)acetamide] | 15.1 ± 1.5 | 15.9 ± 1.5 | 15.5 ± 1.5 | 13.9 ± 1.5 | – | – | – | – | – | –

The remaining lines, values behind:

SMILES | IC50 (EGFR^T790M) [µM] | IC50 (VEGFR-2) [µM] | EC50 (A549) [µM] | EC50 (HCT116) [µM] | EC50 (HepG2) [µM] | EC50 (MCF-7) [µM] | Selectivity index (SI): folds toxicity in A549 than in VERO cells (A549; CC50 VERO vs EC50 A549) [folds] | Selectivity index (SI): folds lethalness in HCT-116 than in VERO cells (HCT116; CC50 VERO vs EC50 HCT-116) [folds] | Selectivity index (SI): folds more toxic respecting HepG2 than normal VERO cells (HepG2; CC50 VERO vs EC50 HepG2) [folds] | Selectivity index (SI): folds toxic in MCF-7 than in normal VERO cells (MCF-7; CC50 VERO vs EC50 MCF-7) [folds] | CC50 [1] [µM] | IC50 (EGFR^WT) [µM]
CCn1c(=O)n(CC(=O)Nc2ccc(C(=O)OC)cc2)c(=O)c2cc(I)ccc21 [Compound 5a, Methyl 4-{2-[1-ethyl-6-iodo-2,4-dioxo-1,4-dihydroquinazolin-3(2H)-yl]acetamido}benzoate] | 0.86 ± 0.5 | 2 ± 0.25 | 8.45 ± 0.7 | 11.4 ± 0.7 | 12.5 ± 0.7 | 11.6 ± 0.7 | – | – | – | – | – | –
CCOC(=O)c1ccc(NC(=O)Cn2c(=O)c3cc(I)ccc3n(CC)c2=O)cc1 [Compound 5b, Ethyl 4-{2-[1-ethyl-6-iodo-2,4-dioxo-1,4-dihydroquinazolin-3(2H)-yl]acetamido}benzoate] | 0.8 ± 0.5 | 1.5 ± 0.1 | 6.78 ± 0.7 | 6.55 ± 0.7 | 7.59 ± 0.7 | 7.4 ± 0.7 | – | – | – | – | – | –
CCCn1c(=O)n(CC(=O)Nc2ccc(C(=O)OC)cc2)c(=O)c2cc(I)ccc21 [Compound 5c, Methyl 4-{2-[6-iodo-2,4-dioxo-1-propyl-1,4-dihydroquinazolin-3(2H)-yl]acetamido}benzoate] | 0.92 ± 0.5 | 1.5 ± 0.5 | 6.73 ± 0.7 | 6.93 ± 0.7 | 7.75 ± 0.7 | 7.96 ± 0.7 | – | – | – | – | – | –
CCCn1c(=O)n(CC(=O)Nc2ccc(C(=O)OCC)cc2)c(=O)c2cc(I)ccc21 [Compound 5d, Ethyl 4-{2-[6-iodo-2,4-dioxo-1-propyl-1,4-dihydroquinazolin-3(2H)-yl]acetamido}benzoate] | 0.4 ± 0.35 | 1.25 ± 0.1 | 6.68 ± 0.7 | 6.52 ± 0.7 | 7.5 ± 0.7 | 7.37 ± 0.7 | 6.98 | 7.15 | 6.21 | 6.32 | 46.6 ± 0.5 | 0.32 ± 0.03
CCNC(=O)c1ccc(NC(=O)Cn2c(=O)c3cc(I)ccc3n(CC)c2=O)cc1 [Compound 6a, 4-{2-[1-Ethyl-6-iodo-2,4-dioxo-1,4-dihydroquinazolin-3(2H)-yl]acetamido}-N-ethylbenzamide] | 0.9 ± 0.5 | 1.4 ± 0.2 | 7.95 ± 0.8 | 7.6 ± 0.8 | 7.8 ± 0.8 | 8.5 ± 0.8 | – | – | – | – | – | –
CCCn1c(=O)n(CC(=O)Nc2ccc(C(=O)NC)cc2)c(=O)c2cc(I)ccc21 [Compound 6b, 4-{2-[6-Iodo-2,4-dioxo-1-propyl-1,4-dihydroquinazolin-3(2H)-yl]acetamido}-N-methylbenzamide] | 0.6 ± 0.35 | 1.65 ± 0.1 | 6.7 ± 0.8 | 8.35 ± 0.8 | 8.5 ± 0.8 | 8.15 ± 0.8 | – | – | – | – | – | –
